According to patent US4477443A, “Tylosin derivatives, their preparation and pharmaceutical compositions containing them” (Zaidan Hojin Biselbutsu Kagaku Kenkyu Kai (Microbial …, priority 1981, dated 1984):
Values after ≈ are worked out from the molar mass of the structure shown. Like-named read-outs stand apart in the source and are kept apart here.

How the values were obtained:
Assay type in all cases: cell-based
Staph. aureus 193 = assay: antimicrobial activity (MIC), Table I; conditions: Staphylococcus aureus; Staph. aureus 193; read-out: MIC
B. subtilis NRRL B-558 = assay: antimicrobial activity (MIC), Table I; conditions: Bacillus subtilis, NRRLB558; B. subtilis NRRL B-558; read-out: MIC
Sal. enteritidis 1891 = assay: antimicrobial activity (MIC), Table I; conditions: Salmonella enterica; Sal. enteritidis 1891; read-out: MIC
Kleb. pneumoniae PCI 602 = assay: antimicrobial activity (MIC), Table I; conditions: Klebsiella pneumoniae, PCI602; Kleb. pneumoniae PCI 602; read-out: MIC
E. coli K-12 ML 1410 = assay: antimicrobial activity (MIC), Table I; conditions: Escherichia coli, K12ML1410
Staph. aureus 209 P = assay: antimicrobial activity (MIC), Table I; conditions: Staphylococcus aureus; Staph. aureus 209 P; read-out: MIC
[1] = tested on: Shigella dysenteriae JS 11910; assay: antimicrobial activity (MIC), Table I; conditions: JS11910
Sarcina lutea PCI 1001 = assay: antimicrobial activity (MIC), Table I; conditions: Micrococcus luteus, PCI1001; Sarcina lutea PCI 1001; read-out: MIC
E. coli K-12 = assay: antimicrobial activity (MIC), Table I; conditions: Escherichia coli, K12; E. coli K-12; read-out: MIC
E. coli K-12 R-5 = assay: antimicrobial activity (MIC), Table I; conditions: Escherichia coli, K12R5; E. coli K-12 R-5; read-out: MIC
E. coli K-12 LA 290 R 55 = assay: antimicrobial activity (MIC), Table I; conditions: Escherichia coli
Staph. aureus MS 9861 = assay: antimicrobial activity (MIC), Table I; conditions: Staphylococcus aureus, MS9861; Staph. aureus MS 9861; read-out: MIC
Coryn. bovis 1810 = assay: antimicrobial activity (MIC), Table I; conditions: Corynebacterium bovis; Coryn. bovis 1810; read-out: MIC
Pro. vulgaris OX-19 = assay: antimicrobial activity (MIC), Table I; conditions: Proteus vulgaris, OX19
E. coli NIHJ = assay: antimicrobial activity (MIC), Table I; conditions: Escherichia coli; E. coli NIHJ; read-out: MIC
B. subtilis ATCC 6633 = assay: antimicrobial activity (MIC), Table II; conditions: Bacillus subtilis, ATCC6633
Staph. aureus ATCC 6538P = assay: antimicrobial activity (MIC), Table II; conditions: Staphylococcus aureus, ATCC6538P
Staph. aureus KC-11 = assay: antimicrobial activity (MIC), Table II; conditions: Staphylococcus aureus, KC11; Staph. aureus KC-11; read-out: MIC
Staph. aureus 226 = assay: antimicrobial activity (MIC), Table II; conditions: Staphylococcus aureus; Staph. aureus 226; read-out: MIC
[2] = tested on: Staph. epidermidis IID 886; assay: antimicrobial activity (MIC), Table II; conditions: Staphylococcus epidermidis, IID886
B. cereus = assay: antimicrobial activity (MIC), Table II; conditions: Bacillus cereus
[3] = Pro. vulgaris OX-19, read-out: MIC
[4] = E. coli K-12 ML 1410, read-out: MIC
[5] = B. subtilis ATCC 6633, read-out: MIC
[6] = Staph. aureus ATCC 6538P, read-out: MIC

Structure (SMILES) | MIC (Staph. aureus 193) [µg/mL] | MIC (B. subtilis NRRL B-558) [µg/mL] | MIC (Sal. enteritidis 1891) [µg/mL] | MIC (Kleb. pneumoniae PCI 602) [µg/mL] | MIC (E. coli K-12 ML 1410) [µg/mL] | MIC (Staph. aureus 209 P) [µg/mL] | MIC [1] [µg/mL] | MIC (Sarcina lutea PCI 1001) [µg/mL] | MIC (E. coli K-12) [µg/mL] | MIC (E. coli K-12 R-5) [µg/mL] | MIC (E. coli K-12 LA 290 R 55) [µg/mL] | MIC (Staph. aureus MS 9861) [µg/mL] | MIC (Coryn. bovis 1810) [µg/mL] | MIC (Pro. vulgaris OX-19) [µg/mL] | MIC (E. coli NIHJ) [µg/mL] | MIC (Pro. vulgaris OX-19; [3]) [µg/mL] | MIC (E. coli K-12 ML 1410; [4]) [µg/mL] | MIC (Staph. aureus KC-11) [µg/mL] | MIC (Staph. aureus 226) [µg/mL] | MIC [2] [µg/mL] | also measured
CCC1OC(=O)CC(O)C(C)C(OC2OC(C)C(O)C(N(C)C)C2O)C(CC=O)CC(C)C(=O)C=CC(C)=CC1CN(CC)CC (centres unmarked) [Example 5, 23-deoxy-23-diethylamino mycaminosyl tylonolide] | 0.78 (≈ 1.19 µM) | 0.78 (≈ 1.19 µM) | 3.12 (≈ 4.78 µM) | 1.56 (≈ 2.39 µM) | 3.12 (≈ 4.78 µM) | 0.78 (≈ 1.19 µM) | 1.56 (≈ 2.39 µM) | < 0.2 | 1.56 (≈ 2.39 µM) | 1.56 (≈ 2.39 µM) | 3.12 (≈ 4.78 µM) | 12.5 (≈ 19.1 µM) | 0.78 (≈ 1.19 µM) | 1.56 (≈ 2.39 µM) | 1.56 (≈ 2.39 µM) |  |  |  |  |  | 
CCCN(CCC)CC1C=C(C)C=CC(=O)C(C)CC(CC=O)C(OC2OC(C)C(O)C(N(C)C)C2O)C(C)C(O)CC(=O)OC1CC (centres unmarked) [Example 6, 23-deoxy-23-dipropylaminomycaminosyl tylonolide] | < 0.2 | 0.39 (≈ 0.573 µM) | 1.56 (≈ 2.29 µM) | 0.78 (≈ 1.15 µM) | 3.12 (≈ 4.58 µM) | < 0.2 | 0.39 (≈ 0.573 µM) | < 0.2 | 1.56 (≈ 2.29 µM) | 1.56 (≈ 2.29 µM) | 1.56 (≈ 2.29 µM) | 1.56 (≈ 2.29 µM) | < 0.2 |  | 0.78 (≈ 1.15 µM) | 1.56 (≈ 2.29 µM) |  |  |  |  | 
CCC1OC(=O)CC(O)C(C)C(OC2OC(C)CC(N(C)C)C2O)C(CC=O)CC(C)C(=O)C=CC(C)=CC1CN(C)C (centres unmarked) [Example 9, 23,4'-dideoxy-23-dimethylaminomycaminosyl tylonolide] | < 0.2 | < 0.2 | < 0.2 | 0.2 (≈ 0.329 µM) | 0.39 (≈ 0.641 µM) | < 0.2 | < 0.2 | 0.2 (≈ 0.329 µM) | 0.39 (≈ 0.641 µM) | 0.39 (≈ 0.641 µM) | 0.39 (≈ 0.641 µM) | 0.39 (≈ 0.641 µM) | 0.2 (≈ 0.329 µM) | 0.78 (≈ 1.28 µM) | < 0.2 |  |  |  |  |  | 
CCC1OC(=O)CC(O)C(C)C(OC2OC(C)CC(N(C)C)C2O)C(CC=O)CC(C)C(=O)C=CC(C)=CC1CN(CC)CC (centres unmarked) [Example 10, 23,4'-dideoxy-23-diethylaminomycaminosyl tylonolide] | < 0.2 | < 0.2 | 0.39 (≈ 0.612 µM) | 0.2 (≈ 0.314 µM) |  | < 0.2 | < 0.2 | < 0.2 | 0.39 (≈ 0.612 µM) | 0.39 (≈ 0.612 µM) | 0.39 (≈ 0.612 µM) | 0.78 (≈ 1.22 µM) | < 0.2 |  | < 0.2 | 0.39 (≈ 0.612 µM) | 0.39 (≈ 0.612 µM) |  |  |  | 
CCC1OC(=O)CC(O)C(C)C(OC2OC(C)C(O)C(N(C)C)C2O)C(CC=O)CC(C)C(=O)C=CC(C)=CC1CN1CCCCC1 (centres unmarked) [Example 13, 23-deoxy-23-piperidinomycaminosyl tylonolide] | 0.39 (≈ 0.587 µM) | 0.39 (≈ 0.587 µM) | 0.78 (≈ 1.17 µM) | 0.39 (≈ 0.587 µM) | 3.12 (≈ 4.69 µM) | 0.39 (≈ 0.587 µM) | < 0.2 | < 0.2 | 1.56 (≈ 2.35 µM) | 1.56 (≈ 2.35 µM) | 1.56 (≈ 2.35 µM) | 0.78 (≈ 1.17 µM) | < 0.2 |  | 0.78 (≈ 1.17 µM) | 1.56 (≈ 2.35 µM) |  |  |  |  | 
CCC1OC(=O)CC(O)C(C)C(OC2OC(C)CC(N(C)C)C2O)C(CC=O)CC(C)C(=O)C=CC(C)=CC1CN1CCCCCC1 (centres unmarked) [Example 18, 23,4'-dideoxy-23-hexamethyleneiminomycaminosyl tylonolide] | < 0.2 | < 0.2 | < 0.2 | 0.39 (≈ 0.588 µM) |  | < 0.2 | < 0.2 | < 0.2 | 0.78 (≈ 1.18 µM) | 0.78 (≈ 1.18 µM) | 0.78 (≈ 1.18 µM) | 0.78 (≈ 1.18 µM) | < 0.2 |  | 0.39 (≈ 0.588 µM) | 0.78 (≈ 1.18 µM) | 0.78 (≈ 1.18 µM) |  |  |  | 
CCC1OC(=O)CC(O)C(C)C(OC2OC(C)CC(N(C)C)C2O)C(CC=O)CC(C)C(=O)C=CC(C)=CC1CN1CCCCCCC1 (centres unmarked) [Example 19, 23,4'-dideoxy-23-heptamethyleneiminomycaminosyl tylonolide] | 0.2 (≈ 0.295 µM) | 0.39 (≈ 0.576 µM) | < 0.2 | 0.2 (≈ 0.295 µM) |  | < 0.2 | < 0.2 | < 0.2 | 0.78 (≈ 1.15 µM) | 0.78 (≈ 1.15 µM) | 0.39 (≈ 0.576 µM) | 0.78 (≈ 1.15 µM) | < 0.2 | 0.39 (≈ 0.576 µM) | 0.39 (≈ 0.576 µM) |  | 0.78 (≈ 1.15 µM) |  |  |  | 
CCC1OC(=O)CC(O)C(C)C(OC2OC(C)CC(N(C)C)C2O)C(CC=O)CC(C)C(=O)C=CC(C)=CC1CN(CC)CC(F)(F)F (centres unmarked) [Example 74, 23,4'-Dideoxy-23-N-(2,2,2-trifluoroethyl)ethylaminomycaminosyl tylonolide] |  |  |  |  |  |  |  |  |  |  |  |  |  |  |  |  |  | 0.78 (≈ 1.13 µM) | 0.78 (≈ 1.13 µM) | 0.78 (≈ 1.13 µM) | MIC (B. subtilis ATCC 6633; [5]): 0.78 µg/mL (≈ 1.13 µM); MIC (Staph. aureus ATCC 6538P; [6]): 0.78 µg/mL (≈ 1.13 µM); MIC (B. cereus; B. cereus, read-out: MIC): 0.78 µg/mL (≈ 1.13 µM)
CCC1OC(=O)CC(O)C(C)C(OC2OC(C)CC(N(C)C)C2O)C(CC=O)CC(C)C(=O)C=CC(C)=CC1CNC1CC1 (centres unmarked) [Example 96, 23,4'-dideoxy-23-cyclopropylaminomycaminosyl tylonolide] |  |  |  |  |  |  |  |  |  |  |  |  |  |  |  |  |  | 0.78 (≈ 1.26 µM) | 0.78 (≈ 1.26 µM) | 0.39 (≈ 0.628 µM) | MIC (B. subtilis ATCC 6633; [5]): 0.78 µg/mL (≈ 1.26 µM); MIC (Staph. aureus ATCC 6538P): 0.39 µg/mL (≈ 0.628 µM); MIC (B. cereus; B. cereus, read-out: MIC): 0.39 µg/mL (≈ 0.628 µM)
CC[C@H]1OC(=O)C[C@@H](O)[C@H](C)[C@@H](O[C@@H]2O[C@H](C)[C@@H](O[C@H]3C[C@@](C)(O)[C@@H](O)[C@H](C)O3)[C@H](N(C)C)[C@H]2O)[C@@H](CC=O)C[C@@H](C)C(=O)/C=C/C(C)=C/[C@@H]1CO[C@@H]1O[C@H](C)[C@@H](O)[C@@H](OC)[C@H]1OC [Tylosin] | 0.78 (≈ 0.851 µM) |  |  |  | > 100 |  |  | < 0.2 | > 100 | > 100 | > 100 |  | 0.2 (≈ 0.218 µM) | > 100 |  |  |  | 1.56 (≈ 1.7 µM) | 1.56 (≈ 1.7 µM) | 1.56 (≈ 1.7 µM) | MIC (B. subtilis ATCC 6633): 0.78 µg/mL (≈ 0.851 µM); MIC (Staph. aureus ATCC 6538P; [6]): 1.56 µg/mL (≈ 1.7 µM); MIC (B. cereus): 0.78 µg/mL (≈ 0.851 µM)
